Publication PMC11555678, “Improved Broad Spectrum Antifungal Drug Synergies with Cryptomycin, a Cdc50-Inspired Antifungal Peptide” (ACS Infectious Diseases, 2024)

Tests used:
C. neoformans H99 [1] = type: cell-based, Cryptococcus neoformans; conditions: (FITC)KKOO in combination with AMB
Procedure: All microdilution assays with fungi were carried out in accordance with CLSI protocols from M27 for yeasts and M38 for filamentous fungi, respectively, unless otherwise specified.[64],[65] Briefly, 96-well plates were charged with RPMI1640 media, with operating volume in the first column, 200 μL, and half operating volume, 100 μL, in the remaining wells. Drug stock solution in DMSO was aliquoted into the first well in each row. Half of the volume in the dosed well was serially diluted 2-fold until column 11. Column 11 was used as the negative growth control, and column 12 was used as the positive growth control. ON yeast cultures in YPD were washed twice in DD-H2O, resuspended in PBS, and adjusted to 5000 cfu/mL in RPMI. The 96-well plate was inoculated with 100 μL aliquots of cell suspension per well. […]
To assess drug synergy, the initial media charged to the plate contained the peptide at twice the final operating concentration; the remaining processing steps were identical to the MIC experiment. Upon addition of 100 μL of inoculant, the final operating concentration was achieved. Control MIC plates were prepared alongside drug synergy plates to account for the day-to-day variability in any individual MIC. FIC index is computed using eq 1. All MIC assays and drug synergy assays were completed with two technical replicates per 96-well plate and a minimum of two biological replicates per drug combination. If a difference in MIC between the two technical replicates on the plate were observed, only the higher concentration was reported as the MIC to reduce the possibility of type 1 error (false positive) [drawing 1] 1

C. neoformans H99 [2] = test: microbe, parasite or virus in culture; type: cell-based, Cryptococcus neoformans; conditions: Table S1; unit and conditions not given (MICs elsewhere in μg/mL)
Procedure: (§1) All microdilution assays with fungi were carried out in accordance with CLSI protocols from M27 for yeasts and M38 for filamentous fungi, respectively, unless otherwise specified.[64],[65] Briefly, 96-well plates were charged with RPMI1640 media, with operating volume in the first column, 200 μL, and half operating volume, 100 μL, in the remaining wells. Drug stock solution in DMSO was aliquoted into the first well in each row. Half of the volume in the dosed well was serially diluted 2-fold until column 11. Column 11 was used as the negative growth control, and column 12 was used as the positive growth control. ON yeast cultures in YPD were washed twice in DD-H2O, resuspended in PBS, and adjusted to 5000 cfu/mL in RPMI. The 96-well plate was inoculated with 100 μL aliquots of cell suspension per well. Plates were incubated at 37 °C for 2 days.

C. neoformans cdc50Δ = test: microbe, parasite or virus in culture; type: cell-based, Cryptococcus neoformans; conditions: Table S1; unit and conditions not given (MICs elsewhere in μg/mL)
Procedure: as §1

C. glabrata 2001 = test: microbe, parasite or virus in culture; type: cell-based, Candida glabrata; conditions: Table S1; unit and conditions not given (MICs elsewhere in μg/mL)
Procedure: as §1

C. albicans SC5413 = test: microbe, parasite or virus in culture; type: cell-based, Candida albicans; conditions: Table S1; unit and conditions not given (MICs elsewhere in μg/mL)
Procedure: as §1

Substance | FIC index (C. neoformans H99 [1]) | MIC (SAR screen peptides) (C. neoformans H99 [2]) | MIC (SAR screen peptides) (C. neoformans cdc50Δ) | MIC (SAR screen peptides) (C. glabrata 2001) | MIC (SAR screen peptides) (C. albicans SC5413)
Myristic acid {Dap(FITC)}WGGIOONYA [(FITC)KKOO, FITC labeled version of KKOO] | < 0.5 | > 128 | 128 |  | 
WGGIAANYA [KKAA, alanine substituted peptide] |  |  | > 128 | > 128 | 
WGGIAKNYA [K5A, alanine substituted peptide] |  |  | > 128 | > 128 | 
WGGIKANYA [K6A, alanine substituted peptide] |  |  | > 128 | > 128 | 
WGGIKONYA [K6O, single ornithine-substituted AW9-Ma derivative] |  | 32 | 4 | 32 | 32
WGGIOKNYA [K5O, single ornithine-substituted AW9-Ma derivative] |  | > 128 | 8 | > 128 | 
WGGIOONYA [KKOO-NHMe, C′ methylamide version of KKOO] |  | 8 | 4 | 16 | 16
WGGIOONY{D-Ala} [A9a, D-Ala9 epimer of KKOO] |  | > 128 | 4 | > 128 | > 128
WGGIOO{D-Asn}YA [N7n, D-Asn7 epimer of KKOO] |  | 32 | 8 | > 128 | > 128
WGGIO{D-Orn}NYA [O6o, D-Orn6 epimer of KKOO] |  | 16 | 4 | > 128 | > 128
WGG{D-Ile}OONYA [I4i, D-Ile4 epimer of KKOO] |  | 16 | 4 | 64 | > 128
W{Hyp}GIOONYA [G2HYP, hydroxyproline at position 2, C′ NH2] |  | 8 | 4 | 16 | 16
{D-Trp}GGIOONYA [W1w, D-Trp1 epimer of KKOO] |  | 16 | 4 | 32 | > 128
